The source of these data is the NIST ThermoML archive (doi:10.1021/je400140n).

SMILES strings stand for the structures. Numbers after ± are expanded uncertainties.

A short description of the data set: molar heat capacity at constant pressure. Conditions: 101.33 kPa, Liquid, Small sample (50 mg) DSC.

In the case of `CCCCn1cc[n+](C)c1.N#CN=C=[N-]` [1-butyl-3-methylimidazolium dicyanamide], the “molar heat capacity at constant pressure” value (296.2 K) worked out at 359.41 ± 58 J/K/mol; the “molar heat capacity at constant pressure” value (300.2 K) is listed as 361.87 ± 58 J/K/mol; the “molar heat capacity at constant pressure” value (304.2 K) turned out to be 363.1 ± 58 J/K/mol; the “molar heat capacity at constant pressure” value (308.2 K) is given as 364.34 ± 58 J/K/mol; the “molar heat capacity at constant pressure” value (312.2 K) worked out at 365.98 ± 59 J/K/mol; the “molar heat capacity at constant pressure” value (316.2 K) was 367.21 ± 59 J/K/mol. In addition, the “molar heat capacity at constant pressure” value by setting is: (320.2 K) 368.65 ± 59 J/K/mol; (324.2 K) 370.08 ± 60 J/K/mol; (328.2 K) 372.14 ± 60 J/K/mol; (332.2 K) 374.39 ± 60 J/K/mol; (336.2 K) 377.47 ± 61 J/K/mol; (340.2 K) 380.35 ± 61 J/K/mol. The “molar heat capacity at constant pressure” value reads like this: (344.2 K) 383.63 ± 62 J/K/mol; (348.2 K) 386.71 ± 62 J/K/mol; (352.2 K) 390.4 ± 63 J/K/mol; (356.2 K) 394.51 ± 63 J/K/mol; (360.2 K) 398.82 ± 64 J/K/mol; (364.2 K) 403.34 ± 65 J/K/mol. In addition, the “molar heat capacity at constant pressure” value turned out to be 408.26 ± 65 J/K/mol (368.2 K) and 413.6 ± 67 J/K/mol (372.2 K).
Regarding `CCCCn1cc[n+](C)c1.N#C[S-]` [1-butyl-3-methylimidazolium thiocyanate], the “molar heat capacity at constant pressure” value worked out at 319.63 ± 51 J/K/mol (296.2 K); 319.63 ± 51 J/K/mol (300.2 K); 320.22 ± 51 J/K/mol (304.2 K); 321.21 ± 51 J/K/mol (308.2 K); 322.98 ± 52 J/K/mol (312.2 K); 324.36 ± 52 J/K/mol (316.2 K). Besides, the “molar heat capacity at constant pressure” value runs as follows: (320.2 K) 325.55 ± 52 J/K/mol; (324.2 K) 326.93 ± 52 J/K/mol; (328.2 K) 329.1 ± 53 J/K/mol; (332.2 K) 331.27 ± 53 J/K/mol; (336.2 K) 333.64 ± 54 J/K/mol; (340.2 K) 336 ± 54 J/K/mol. For the same molecule, the “molar heat capacity at constant pressure” value (344.2 K) is recorded as 338.57 ± 54 J/K/mol; the “molar heat capacity at constant pressure” value (348.2 K) is reported as 341.13 ± 55 J/K/mol; the “molar heat capacity at constant pressure” value (352.2 K) was determined as 344.29 ± 55 J/K/mol; the “molar heat capacity at constant pressure” value (356.2 K) is on record as 347.05 ± 56 J/K/mol; the “molar heat capacity at constant pressure” value (360.2 K) turned out to be 350.21 ± 56 J/K/mol; the “molar heat capacity at constant pressure” value (364.2 K) is 353.37 ± 57 J/K/mol. Further, the “molar heat capacity at constant pressure” value is 356.72 ± 57 J/K/mol (368.2 K) and 360.27 ± 58 J/K/mol (372.2 K).
With `CCn1cc[n+](C)c1.N#C[C-](C#N)C#N` [1-ethyl-3-methyl-1H-imidazolium tricyanomethanide], the “molar heat capacity at constant pressure” value by setting is: (296.2 K) 357.18 ± 57 J/K/mol; (300.2 K) 360.2 ± 58 J/K/mol; (304.2 K) 362.41 ± 58 J/K/mol; (308.2 K) 363.82 ± 58 J/K/mol; (312.2 K) 365.83 ± 59 J/K/mol; (316.2 K) 367.44 ± 59 J/K/mol. The “molar heat capacity at constant pressure” value came to 368.85 ± 59 J/K/mol (320.2 K); 370.26 ± 60 J/K/mol (324.2 K); 372.07 ± 60 J/K/mol (328.2 K); 374.49 ± 60 J/K/mol (332.2 K); 376.9 ± 61 J/K/mol (336.2 K); 379.31 ± 61 J/K/mol (340.2 K). In addition, the “molar heat capacity at constant pressure” value is, setting by setting: (344.2 K) 381.73 ± 61 J/K/mol; (348.2 K) 384.35 ± 62 J/K/mol; (352.2 K) 387.16 ± 62 J/K/mol; (356.2 K) 390.18 ± 63 J/K/mol; (360.2 K) 393 ± 63 J/K/mol; (364.2 K) 396.22 ± 64 J/K/mol. In addition, the “molar heat capacity at constant pressure” value reads like this: (368.2 K) 399.24 ± 64 J/K/mol; (372.2 K) 403.06 ± 65 J/K/mol.
Regarding `CCn1cc[n+](C)c1.N#CN=C=[N-]` [1-ethyl-3-methylimidazolium dicyanamide], the “molar heat capacity at constant pressure” value (296.2 K) is listed as 323.76 ± 52 J/K/mol; the “molar heat capacity at constant pressure” value (300.2 K) was determined as 325.88 ± 52 J/K/mol; the “molar heat capacity at constant pressure” value (304.2 K) stood at 328.01 ± 53 J/K/mol; the “molar heat capacity at constant pressure” value (308.2 K) was found to be 329.96 ± 53 J/K/mol; the “molar heat capacity at constant pressure” value (312.2 K) was 332.44 ± 53 J/K/mol; the “molar heat capacity at constant pressure” value (316.2 K) was 334.21 ± 54 J/K/mol. Further, the “molar heat capacity at constant pressure” value reads like this: (320.2 K) 335.81 ± 54 J/K/mol; (324.2 K) 337.76 ± 54 J/K/mol; (328.2 K) 340.24 ± 55 J/K/mol; (332.2 K) 342.89 ± 55 J/K/mol; (336.2 K) 345.55 ± 55 J/K/mol; (340.2 K) 348.21 ± 56 J/K/mol. In addition, the “molar heat capacity at constant pressure” value by setting is: (344.2 K) 351.22 ± 56 J/K/mol; (348.2 K) 354.41 ± 57 J/K/mol; (352.2 K) 357.78 ± 57 J/K/mol; (356.2 K) 361.15 ± 58 J/K/mol; (360.2 K) 364.87 ± 59 J/K/mol; (364.2 K) 368.59 ± 59 J/K/mol. In addition, the “molar heat capacity at constant pressure” value by setting is: (368.2 K) 372.49 ± 60 J/K/mol; (372.2 K) 376.74 ± 60 J/K/mol.
Consider `CCn1cc[n+](C)c1.N#C[S-]` [1-ethyl-3-methylimidazolium thiocyanate], for which the “molar heat capacity at constant pressure” value (296.2 K) is 284.51 ± 46 J/K/mol; the “molar heat capacity at constant pressure” value (300.2 K) is 284.17 ± 46 J/K/mol; the “molar heat capacity at constant pressure” value (304.2 K) was found to be 285.18 ± 46 J/K/mol; the “molar heat capacity at constant pressure” value (308.2 K) amounted to 286.2 ± 46 J/K/mol; the “molar heat capacity at constant pressure” value (312.2 K) is recorded as 287.89 ± 46 J/K/mol; the “molar heat capacity at constant pressure” value (316.2 K) came out at 289.25 ± 47 J/K/mol. The “molar heat capacity at constant pressure” value turned out to be 290.6 ± 47 J/K/mol (320.2 K); 292.12 ± 47 J/K/mol (324.2 K); 293.98 ± 47 J/K/mol (328.2 K); 296.18 ± 48 J/K/mol (332.2 K); 298.22 ± 48 J/K/mol (336.2 K); 300.59 ± 48 J/K/mol (340.2 K). In addition, the “molar heat capacity at constant pressure” value runs as follows: (344.2 K) 303.12 ± 49 J/K/mol; (348.2 K) 305.49 ± 49 J/K/mol; (352.2 K) 308.2 ± 49 J/K/mol; (356.2 K) 310.91 ± 50 J/K/mol; (360.2 K) 313.96 ± 50 J/K/mol; (364.2 K) 317.17 ± 51 J/K/mol. The “molar heat capacity at constant pressure” value is recorded as 320.05 ± 51 J/K/mol (368.2 K) and 323.43 ± 52 J/K/mol (372.2 K).
Take `O=S1(=O)CCCC1` [sulfolane]: the “molar heat capacity at constant pressure” value was 182.42 ± 29 J/K/mol (308.2 K); 183.5 ± 29 J/K/mol (312.2 K); 184.7 ± 30 J/K/mol (316.2 K); 185.9 ± 30 J/K/mol (320.2 K); 187.11 ± 30 J/K/mol (324.2 K); 188.79 ± 30 J/K/mol (328.2 K). For the same molecule, the “molar heat capacity at constant pressure” value is, setting by setting: (332.2 K) 190.47 ± 31 J/K/mol; (336.2 K) 192.39 ± 31 J/K/mol; (340.2 K) 194.32 ± 31 J/K/mol; (344.2 K) 196.36 ± 31 J/K/mol; (348.2 K) 198.52 ± 32 J/K/mol; (352.2 K) 200.81 ± 32 J/K/mol. The “molar heat capacity at constant pressure” value is reported as 203.21 ± 33 J/K/mol (356.2 K); 205.73 ± 33 J/K/mol (360.2 K); 208.26 ± 33 J/K/mol (364.2 K); 210.9 ± 34 J/K/mol (368.2 K); 213.66 ± 34 J/K/mol (372.2 K).
